This is an account of results in patent publication US10273248B2, “Glucose uptake inhibitors” (Kadmon Corporation LLC, priority 2015, dated 2019).

A value given as a limit tells only on which side of the number the result lay.

The test system of this assay is glycolysis in HT1080 cells. Kind of assay: Glycolysis assay: oligomycin plus compound, cellular ATP by Cell Titer Glo. Type of assay: cell-based. The note with it: Homo sapiens, HT-1080, 1 h, 10 μM oligomycin, one hour, class symbols. From the text: Therefore, an assay was developed that utilizes the combination of the glucose uptake inhibitors disclosed herein with oligomycin, a well-characterized inhibitor of ATP synthase. Because oligomycin inhibits ATP derived from oxidative phosphorylation, any remaining ATP production is derived from glycolysis. By reading out cellular ATP levels using the Promega Cell Titer Glo kit, the extent of glycolysis inhibition by the glucose uptake inhibitors disclosed herein can be assessed. […] Utilizing this experimental set-up, the IC50 of glycolysis inhibition for each compound can be determined.
Determination of Glucose Uptake/GLUT Activity (Glycolysis Assay):
HT1080 cells (as well as other cell types) were plated to confluency in 96-well plates. Cells were exposed to the combination of 10 μM Oligomycin (to block mitochondrial-derived ATP) and the glucose uptake inhibitors disclosed herein for one-hour, after which glycolytically-derived ATP was measured with the Cell Titer-Glo assay kit (Promega). Dose-response curves of the glucose uptake inhibitors disclosed herein were used to determine the IC50 for GLUT activity.
For `CC(C)NC(=O)COc1cccc(-c2nc3c(c(Nc4ccc(-c5cn[nH]c5)cc4)n2)CSC3)c1` [Example 84, 2-(3-(4-((4-(1H-pyrazol-4-yl)phenyl)amino)-5,7-dihydrothieno[3,4-d]pyrimidin-2-yl)phenoxy)-N-isopropylacetamide], the IC50 lay within 251 to 500 nM.
As to `O=C(COc1cccc(-c2nc3c(c(Nc4ccc(-c5cn[nH]c5)cc4)n2)CSC3)c1)NC1CCC1` [Example 86, 2-(3-(4-((4-(1H-pyrazol-4-yl)phenyl)amino)-5,7-dihydrothieno[3,4-d]pyrimidin-2-yl)phenoxy)-N-cyclobutylacetamide], the IC50 lay in the range of 101 to 250 nM.
For the compound `O=C(COc1cccc(-c2nc3c(c(Nc4ccc(-c5cn[nH]c5)cc4)n2)CSC3)c1)NC1CCCC1` [Example 87, 2-(3-(4-((4-(1H-pyrazol-4-yl)phenyl)amino)-5,7-dihydrothieno[3,4-d]pyrimidin-2-yl)phenoxy)-N-cyclopentylacetamide], the IC50 fell in the range of 101 to 250 nM.
For `CCC(CC)NC(=O)COc1cc(F)cc(-c2nc3c(c(Nc4ccc(-c5cn[nH]c5)cc4)n2)COC3)c1` [Example 88, 2-(3-(4-((4-(1H-pyrazol-4-yl)phenyl)amino)-5,7-dihydrofuro[3,4-d]pyrimidin-2-yl)-5-fluorophenoxy)-N-(pentan-3-yl)acetamide] the value was 501 to 1000 nM; for `O=C(COc1cccc(-c2nc3c(c(Nc4ccc(-c5cn[nH]c5)cc4)n2)COC3)c1)NC1CCCCC1` [Example 89, 2-(3-(4-((4-(1H-pyrazol-4-yl)phenyl)amino)-5,7-dihydrofuro[3,4-d]pyrimidin-2-yl)phenoxy)-N-cyclohexylacetamide], 10 to 100 nM; for `CC(NC(=O)COc1cccc(-c2nc3c(c(Nc4ccc(-c5cn[nH]c5)cc4)n2)COC3)c1)C(F)(F)F` (stereo not shown) [Example 90, 2-(3-(4-((4-(1H-pyrazol-4-yl)phenyl)amino)-5,7-dihydrofuro[3,4-d]pyrimidin-2-yl)phenoxy)-N-(1,1,1-trifluoropropan-2-yl)acetamide], 10 to 100 nM.
`Cc1ccc(CNc2cccc(-c3nc4c(c(Nc5ccc(-c6cn[nH]c6)cc5)n3)COC4)c2)cn1` [Example 91, N-(4-(1H-pyrazol-4-yl)phenyl)-2-(3-(((6-methylpyridin-3-yl)methyl)amino)phenyl)-5,7-dihydrofuro[3,4-d]pyrimidin-4-amine]: the IC50 is greater than 1000 nM.
On to `Fc1cncc(CNc2cccc(-c3nc4c(c(Nc5ccc(-c6cn[nH]c6)cc5)n3)COC4)c2)c1` [Example 92, N-(4-(1H-pyrazol-4-yl)phenyl)-2-(3-(((5-fluoropyridin-3-yl)methyl)amino)phenyl)-5,7-dihydrofuro[3,4-d]pyrimidin-4-amine], for which the 50% inhibitory concentration (IC50) lay in the range of 501 to 1000 nM.
As to `Clc1cncc(CNc2cccc(-c3nc4c(c(Nc5ccc(-c6cn[nH]c6)cc5)n3)COC4)c2)c1` [Example 93, N-(4-(1H-pyrazol-4-yl)phenyl)-2-(3-(((5-chloropyridin-3-yl)methyl)amino)phenyl)-5,7-dihydrofuro[3,4-d]pyrimidin-4-amine], the IC50 fell in the range of 501 to 1000 nM.
In the case of `Cc1cncc(CNc2cccc(-c3nc4c(c(Nc5ccc(-c6cn[nH]c6)cc5)n3)COC4)c2)c1` [Example 94, N-(4-(1H-pyrazol-4-yl)phenyl)-2-(3-(((5-methylpyridin-3-yl)methyl)amino)phenyl)-5,7-dihydrofuro[3,4-d]pyrimidin-4-amine], the IC50 is 501 to 1000 nM.
As to `CC(C)NC(=O)COc1cc(-c2nc3c(c(Nc4ccc(-c5cn[nH]c5)cc4)n2)COC3)ccc1F` [Example 95, 2-(5-(4-((4-(1H-pyrazol-4-yl)phenyl)amino)-5,7-dihydrofuro[3,4-d]pyrimidin-2-yl)-2-fluorophenoxy)-N-isopropylacetamide], the IC50 is greater than 1000 nM.
For `CC(C)(C)NC(=O)COc1cc(-c2nc3c(c(Nc4ccc(-c5cn[nH]c5)cc4)n2)COC3)ccc1F` [Example 96, 2-(5-(4-((4-(1H-pyrazol-4-yl)phenyl)amino)-5,7-dihydrofuro[3,4-d]pyrimidin-2-yl)-2-fluorophenoxy)-N-(tert-butyl)acetamide] the value was greater than 1000 nM; for `CCC(CC)NC(=O)COc1cc(-c2nc3c(c(Nc4ccc(-c5cn[nH]c5)cc4)n2)COC3)ccc1F` [Example 97, 2-(5-(4-((4-(1H-pyrazol-4-yl)phenyl)amino)-5,7-dihydrofuro[3,4-d]pyrimidin-2-yl)-2-fluorophenoxy)-N-(pentan-3-yl)acetamide], greater than 1000 nM; for `CC(C)NC(=O)COc1cccc(-c2nc3c(c(Nc4ccc(-c5cn[nH]c5)cc4)n2)COCC3)c1` [Example 102, 2-(3-(4-((4-(1H-pyrazol-4-yl)phenyl)amino)-7,8-dihydro-5H-pyrano[4,3-d]pyrimidin-2-yl)phenoxy)-N-isopropylacetamide], 10 to 100 nM.
To `CCC(C)NC(=O)COc1cccc(-c2nc3c(c(Nc4ccc(-c5cn[nH]c5)cc4)n2)COCC3)c1` (stereo not shown) [Example 103, 2-(3-(4-((4-(1H-pyrazol-4-yl)phenyl)amino)-7,8-dihydro-5H-pyrano[4,3-d]pyrimidin-2-yl)phenoxy)-N-(sec-butyl)acetamide] belongs 10 to 100 nM.
With `CC(C)CNC(=O)COc1cccc(-c2nc3c(c(Nc4ccc(-c5cn[nH]c5)cc4)n2)COCC3)c1` [Example 104, 2-(3-(4-((4-(1H-pyrazol-4-yl)phenyl)amino)-7,8-dihydro-5H-pyrano[4,3-d]pyrimidin-2-yl)phenoxy)-N-isobutylacetamide], the IC50 lay in the range of 10 to 100 nM.
To `CC(C)(C)CNC(=O)COc1cccc(-c2nc3c(c(Nc4ccc(-c5cn[nH]c5)cc4)n2)COCC3)c1` [Example 105, 2-(3-(4-((4-(1H-pyrazol-4-yl)phenyl)amino)-7,8-dihydro-5H-pyrano[4,3-d]pyrimidin-2-yl)phenoxy)-N-neopentylacetamide] belongs 10 to 100 nM; to `O=C(COc1cccc(-c2nc3c(c(Nc4ccc(-c5cn[nH]c5)cc4)n2)COCC3)c1)NC1CCCC1` [Example 108, 2-(3-(4-((4-(1H-pyrazol-4-yl)phenyl)amino)-7,8-dihydro-5H-pyrano[4,3-d]pyrimidin-2-yl)phenoxy)-N-cyclopentylacetamide], 10 to 100 nM; to `O=C(COc1cccc(-c2nc3c(c(Nc4ccc(-c5cn[nH]c5)cc4)n2)COCC3)c1)NC1CCC1` [Example 109, 2-(3-(4-((4-(1H-pyrazol-4-yl)phenyl)amino)-7,8-dihydro-5H-pyrano[4,3-d]pyrimidin-2-yl)phenoxy)-N-cyclobutylacetamide], 10 to 100 nM.
In the case of `CC(C)(C)NC(=O)COc1cccc(-c2nc(Nc3ccc(-c4cn[nH]c4)cc3)c3sccc3n2)c1` [Example 110, 2-(3-(4-((4-(1H-pyrazol-4-yl)phenyl)amino)thieno[3,2-d]pyrimidin-2-yl)phenoxy)-N-(tert-butyl)acetamide], the IC50 lay within 101 to 250 nM.
For `CCC(C)(C)NC(=O)COc1cccc(-c2nc(Nc3ccc(-c4cn[nH]c4)cc3)c3sccc3n2)c1` [Example 111, 2-(3-(4-((4-(1H-pyrazol-4-yl)phenyl)amino)thieno[3,2-d]pyrimidin-2-yl)phenoxy)-N-(tert-pentyl)acetamide] the value was 101 to 250 nM; for `CC(=O)N1CCc2nc(-c3cccc(OCC(=O)NC(C)C)c3)nc(Nc3ccc(-c4cn[nH]c4)cc3)c2C1` [Example 112, 2-(3-(4-((4-(1H-pyrazol-4-yl)phenyl)amino)-6-acetyl-5,6,7,8-tetrahydropyrido[4,3-d]pyrimidin-2-yl)phenoxy)-N-isopropylacetamide], 101 to 250 nM.
